This note sets out measurements from patent US8394829B2, “Bi-functional quinoline analogs” (Gilead Sciences, Inc., priority 2010, dated 2013).

For one test, the target named is T1, Human recombinant PDE4B2 (Homo sapiens, UniProt Q07343).
T1 construct: purchased BPS Bioscience
Kind of test: Inhibition of PDE4B4 enzyme activity (PDE Glo Assay). Particulars: human recombinant PDE4B2, 50 nM cAMP; read-out: PDE4 IC50. In kind it is biochemical. Summed up:
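Human recombinant PDE4B2 (0.12 nM) was pre-incubated with compound for 10 min at rt, then 50 nM cAMP was added for 1 hr. After IBMX stop and PKA detection, read-out was Kinase-Glo luminescence. IC50 came from a single-site nonlinear fit of RLU versus concentration.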

For test [1], the target named is T2, human recombinant beta-2 adrenoreceptors (Homo sapiens, UniProt P07550).
T2 construct: expressed in transfected cells; host or cells: CHO cells
T2 sequence (P07550 whole entry): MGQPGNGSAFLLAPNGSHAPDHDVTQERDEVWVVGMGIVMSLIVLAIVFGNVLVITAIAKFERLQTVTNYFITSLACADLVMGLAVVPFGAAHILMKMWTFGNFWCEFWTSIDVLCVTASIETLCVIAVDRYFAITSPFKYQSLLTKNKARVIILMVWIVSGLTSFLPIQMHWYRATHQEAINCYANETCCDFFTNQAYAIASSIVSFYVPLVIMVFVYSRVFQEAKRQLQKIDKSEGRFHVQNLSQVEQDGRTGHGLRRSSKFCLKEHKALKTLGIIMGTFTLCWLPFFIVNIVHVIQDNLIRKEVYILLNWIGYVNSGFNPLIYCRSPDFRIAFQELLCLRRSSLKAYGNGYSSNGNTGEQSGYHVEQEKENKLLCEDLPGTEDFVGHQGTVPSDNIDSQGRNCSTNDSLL
Kind of test: Beta-2 adrenoceptor binding assay ([3H](−)CGP-12177 displacement). The conditions noted are these: CHO cells expressing human beta-2 adrenoreceptors, [3H](−)CGP-12177 0.3 nM, 120 min. Summed up: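 Displacement of [3H](−)CGP-12177 (0.3 nM) from human recombinant beta-2 receptors expressed in CHO cells, measured after 120 min incubation with test compound. Bound radioligand counted by scintillation; IC50 taken from concentration-response curves as 50% of each compound's maximal inhibition.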

The target of test [2] is T2, human recombinant beta-2 adrenoreceptors. In words: Functional agonism of human recombinant beta-2 adrenoreceptors expressed in CHO cells (cAMP HTRF). The conditions noted are these: CHO cells expressing human beta-2 adrenoreceptors, cAMP elevation, 30 min. In kind it is cell-based. An outline of the steps:
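CHO cells expressing recombinant receptor incubated with compound for 30 min; intracellular cAMP rise over control read by HTRF. EC50 taken as concentration giving 50% of that compound's own maximal response, with full or partial agonism judged against isoproterenol maximum.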
For orientation: In TR-FRET formats the signal depends on donor and acceptor labels being close together.

For test [3], the system named is LPS-induced TNF-α release from human peripheral blood mononuclear cells (PBMC). Kind of test: Inhibition of LPS-induced TNF-α release from human PBMC. In kind it is cell-based. Particulars: LPS 0.4 ng/mL, 6 h, presence or absence of ICI-118551 not given. An outline of the steps:
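Ficoll-purified primary PBMC, 100,000 cells/well, pre-incubated 30 min ± 10 μM ICI-118551 (± gives PDE4-only vs PDE4 plus beta-2 activity), then compound 1 h at 37 °C (0.1% DMSO). Stimulated with 0.4 ng/mL LPS for 6 h; supernatant TNF-α by bead cytokine assay; IC50 from single-site fit.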

Molecules are shown by their SMILES.

T1 sequence (Q07343 1-564 isoform Q07343-2): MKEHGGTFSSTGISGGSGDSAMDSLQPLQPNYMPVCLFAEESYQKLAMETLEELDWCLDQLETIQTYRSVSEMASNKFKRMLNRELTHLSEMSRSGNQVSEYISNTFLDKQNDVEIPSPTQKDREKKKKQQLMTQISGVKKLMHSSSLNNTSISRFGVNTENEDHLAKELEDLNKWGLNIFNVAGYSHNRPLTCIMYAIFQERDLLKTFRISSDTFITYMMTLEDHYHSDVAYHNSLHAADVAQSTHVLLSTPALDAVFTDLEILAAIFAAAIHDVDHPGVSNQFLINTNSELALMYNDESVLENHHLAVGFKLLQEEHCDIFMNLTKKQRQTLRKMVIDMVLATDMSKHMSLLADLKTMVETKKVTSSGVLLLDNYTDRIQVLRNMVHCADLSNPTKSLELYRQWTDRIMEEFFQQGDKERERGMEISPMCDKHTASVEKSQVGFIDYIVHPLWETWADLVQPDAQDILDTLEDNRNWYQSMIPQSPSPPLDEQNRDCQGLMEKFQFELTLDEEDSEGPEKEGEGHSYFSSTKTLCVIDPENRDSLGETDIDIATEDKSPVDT

Take `COc1cccc(Nc2c(C(N)=O)cnc3c(C)cc(S(=O)(=O)c4cccc(-c5ccc(CNC[C@H](O)c6ccc(O)c7[nH]c(=O)ccc67)cc5)c4)cc23)c1` [Example 47, (R)-6-((4′-(((2-hydroxy-2-(8-hydroxy-2-oxo-1,2-dihydroquinolin-5-yl)ethyl)amino)methyl)-[1,1′-biphenyl]-3-yl)sulfonyl)-4-((3-methoxyphenyl)amino)-8-methylquinoline-3-carboxamide]: the IC50 (in general, the concentration that gives 50% inhibition) on Human recombinant PDE4B2 was < 100 nM; in test [1] it was > 300 nM. In addition, the EC50 (commonly the midpoint of the concentration-response curve) in test [2] is > 300 nM; in test [3], < 100 nM.

Take `COc1cccc(Nc2c(C(N)=O)cnc3c(C)cc(S(=O)(=O)c4cccc(C(=O)N5CCN(C(=O)c6cccc(CC(C)(C)NC[C@H](O)c7ccc(O)c8[nH]c(=O)ccc78)c6)CC5)c4)cc23)c1` [Example 18, (R)-6-((3-(4-(3-(2-((2-hydroxy-2-(8-hydroxy-2-oxo-1,2-dihydroquinolin-5-yl)ethyl)amino)-2-methylpropyl)benzoyl)piperazine-1-carbonyl)phenyl)sulfonyl)-4-((3-methoxyphenyl)amino)-8-methylquinoline-3-carboxamide]: the 50% inhibitory concentration (IC50) (on Human recombinant PDE4B2; in test [1]) was < 100 nM in each case. The concentration for a half-maximal effect (EC50) in test [2] and in test [3] was < 100 nM each time.

Consider `COc1cccc(Nc2c(C(N)=O)cnc3c(C)cc(S(=O)(=O)c4cccc(C(=O)NCCCCCCNC[C@H](O)c5ccc(O)c(NC=O)c5)c4)cc23)c1` [Example 27, (R)-6-[[3-[[6-[[2-(3-Formamido-4-hydroxyphenyl)-2-hydroxyethyl]amino]hexyl]carbamoyl]phenyl]sulfonyl]-4-((3-methoxyphenyl)amino]-8-methylquinoline-3-carboxamide], for which the IC50 (at Human recombinant PDE4B2; in test [1]) was < 100 nM in each case. The concentration giving a half-maximal response (EC50) in test [2] and in test [3] was < 100 nM throughout.

As to `COc1cccc(Nc2c(C(N)=O)cnc3c(C)cc(S(=O)(=O)c4cccc(C(=O)Nc5ccc(CCNC[C@H](O)c6ccc(O)c7[nH]c(=O)ccc67)cc5)c4)cc23)c1` [Example 12, (R)-6-[[3-[[4-[2-[[2-Hydroxy-2-(8-hydroxy-2-oxo-1,2-dihydroquinolin-5-yl)ethyl]amino]ethyl]phenyl]carbamoyl]phenyl]sulfonyl]-4-[(3-methoxyphenyl)amino]-8-methylquinoline-3-carboxamide], the IC50 (on Human recombinant PDE4B2; in test [1]) was < 100 nM in each case. The concentration for a half-maximal effect (EC50) in test [2] and in test [3] was < 100 nM throughout.

Regarding `COc1cccc(Nc2c(C(N)=O)cnc3c(C)cc(S(=O)(=O)c4cccc(CN(C)C(=O)c5cccc(CC(C)(C)NC[C@H](O)c6ccc(O)c7[nH]c(=O)ccc67)c5)c4)cc23)c1` [Example 19, (R)-6-((3-((3-(2-((2-hydroxy-2-(8-hydroxy-2-oxo-1,2-dihydroquinolin-5-yl)ethyl)amino)-2-methylpropyl)-N-methylbenzamido)methyl)phenyl)sulfonyl)-4-((3-methoxyphenyl)amino)-8-methylquinoline-3-carboxamide], the IC50 (on Human recombinant PDE4B2; in test [1]) was < 100 nM each time. For the same molecule, the EC50 in test [2] and in test [3] was < 100 nM each time.

For `COc1cccc(Nc2c(C(N)=O)cnc3c(C)cc(S(=O)(=O)c4cccc(C(=O)NCCCCCCNC[C@H](O)c5ccc(O)c6[nH]c(=O)ccc56)c4)cc23)c1` [Example 2, (R)-6-[[3-[[6-[[2-Hydroxy-2-(8-hydroxy-2-oxo-1,2-dihydroquinolin-5-yl)ethyl]amino]hexyl]carbamoyl]phenyl]sulfonyl]-4-((3-methoxyphenyl)amino]-8-methylquinoline-3-carboxamide], the IC50 (at Human recombinant PDE4B2; in test [1]) was < 100 nM throughout. Moreover, the EC50 in test [2] and in test [3] was < 100 nM in each case.

Turning to `COc1cccc(Nc2c(C(N)=O)cnc3c(C)cc(S(=O)(=O)c4ccc(-c5ccc(CNC[C@H](O)c6ccc(O)c7[nH]c(=O)ccc67)cc5)cc4)cc23)c1` [Example 48, (R)-6-((4′-(((2-hydroxy-2-(8-hydroxy-2-oxo-1,2-dihydroquinolin-5-yl)ethyl)amino)methyl)-[1,1′-biphenyl]-4-yl)sulfonyl)-4-((3-methoxyphenyl)amino)-8-methylquinoline-3-carboxamide], the IC50 (on Human recombinant PDE4B2; in test [1]) was < 100 nM in each case. For the same molecule, the concentration for a half-maximal effect (EC50) in test [2] and in test [3] was < 100 nM each time.

Take `COc1cccc(Nc2c(C(N)=O)cnc3c(C)cc(S(=O)(=O)c4cccc(C(=O)N(C)c5ccc(C#CCCCNC[C@H](O)c6ccc(O)c7[nH]c(=O)ccc67)cc5)c4)cc23)c1` [Example 33, (R)-6-((3-((4-(5-((2-hydroxy-2-(8-hydroxy-2-oxo-1,2-dihydroquinolin-5-yl)ethyl)amino)pent-1-yn-1-yl)phenyl)(methyl)carbamoyl)phenyl)sulfonyl)-4-((3-methoxyphenyl)amino)-8-methylquinoline-3-carboxamide]: the concentration for half-maximal inhibition (IC50) (on Human recombinant PDE4B2; in test [1]) was < 100 nM in each case. The EC50 in test [2] and in test [3] was < 100 nM throughout.

As for `COc1cccc(Nc2c(C(N)=O)cnc3c(C)cc(S(=O)(=O)c4cccc(CN(C)C(=O)c5cccc(CC(C)NC[C@H](O)c6ccc(O)c7[nH]c(=O)ccc67)c5)c4)cc23)c1` (stereo partly drawn) [Example 13, 6-[[3-[[3-[2-[[(R)-2-Hydroxy-2-(8-hydroxy-2-oxo-1,2-dihydroquinolin-5-yl)ethyl]amino]propyl]-N-methylbenzamido]methyl]phenyl]sulfonyl]-4-[(3-methoxyphenyl)amino]-8-methylquinoline-3-carboxamide], the IC50 (at Human recombinant PDE4B2; in test [1]) was < 100 nM in each case. For the same molecule, the EC50 in test [2] and in test [3] was < 100 nM throughout.

Take `COc1cccc(Nc2c(C(N)=O)cnc3c(C)cc(S(=O)(=O)c4cccc(C(=O)N(C)CCOc5ccc(CCNC[C@H](O)c6ccc(O)c7[nH]c(=O)ccc67)cc5)c4)cc23)c1` [Example 25, (R)-6-((3-((2-(4-(2-((2-hydroxy-2-(8-hydroxy-2-oxo-1,2-dihydroquinolin-5-yl)ethyl)amino)ethyl)phenoxy)ethyl)(methyl)carbamoyl)phenyl)sulfonyl)-4-((3-methoxyphenyl)amino)-8-methylquinoline-3-carboxamide]: the IC50 at Human recombinant PDE4B2 is < 100 nM; in test [1], > 300 nM. For the same molecule, the EC50 in test [2] and in test [3] was < 100 nM throughout.

On to `COc1cccc(Nc2c(C(N)=O)cnc3c(C)cc(S(=O)(=O)c4cccc(C(=O)NCCCCCCNC[C@H](O)c5cc(O)cc6c5OCC(=O)N6)c4)cc23)c1` [Example 23, (R)-6-((3-((6-((2-hydroxy-2-(6-hydroxy-3-oxo-3,4-dihydro-2H-benzo[b][1,4]oxazin-8-yl)ethyl)amino)hexyl)carbamoyl)phenyl)sulfonyl)-4-((3-methoxyphenyl)amino)-8-methylquinoline-3-carboxamide], for which the IC50 (at Human recombinant PDE4B2; in test [1]) was < 100 nM in each case. In addition, the EC50 in test [2] and in test [3] was < 100 nM each time.

`COc1cccc(Nc2c(C(N)=O)cnc3c(C)cc(S(=O)(=O)c4cccc(C(=O)N(C)CCCCCCNC[C@H](O)c5ccc(O)c6c5OCC(=O)N6)c4)cc23)c1` [Example 30, (R)-6-((3-((6-((2-hydroxy-2-(5-hydroxy-3-oxo-3,4-dihydro-2H-benzo[b][1,4]oxazin-8-yl)ethyl)amino)hexyl)(methyl)carbamoyl)phenyl)sulfonyl)-4-((3-methoxyphenyl)amino)-8-methylquinoline-3-carboxamide]: the IC50 (on Human recombinant PDE4B2; in test [1]) was < 100 nM throughout. Moreover, the EC50 in test [2] and in test [3] was < 100 nM throughout.

Regarding `COc1cccc(Nc2c(C(N)=O)cnc3c(C)cc(S(=O)(=O)CCCCCCCCCCCNC[C@H](O)c4ccc(O)c5[nH]c(=O)ccc45)cc23)c1` [Example 45, (R)-6-((11-((2-hydroxy-2-(8-hydroxy-2-oxo-1,2-dihydroquinolin-5-yl)ethyl)amino)undecyl)sulfonyl)-4-((3-methoxyphenyl)amino)-8-methylquinoline-3-carboxamide], the IC50 (on Human recombinant PDE4B2; in test [1]) was < 100 nM in each case. In addition, the EC50 in test [2] and in test [3] was < 100 nM in each case.

On to `COc1cccc(Nc2c(C(N)=O)cnc3c(C)cc(S(=O)(=O)c4cccc(C(=O)NCCCCCCNC[C@H](O)c5ccc(O)c6c5OCC(=O)N6)c4)cc23)c1` [Example 29, (R)-6-((3-((6-((2-hydroxy-2-(5-hydroxy-3-oxo-3,4-dihydro-2H-benzo[b][1,4]oxazin-8-yl)ethyl)amino)hexyl)carbamoyl)phenyl)sulfonyl)-4-((3-methoxyphenyl)amino)-8-methylquinoline-3-carboxamide], for which the half-inhibitory concentration (IC50) (on Human recombinant PDE4B2; in test [1]) was < 100 nM throughout. For the same molecule, the EC50 in test [2] and in test [3] was < 100 nM each time.
